# Laboratory results taken from patent US20240059729A1, “MULTIFUNCTIONAL CYCLIC DINUCLEOTIDE AND USE THEREOF” (TYLIGAND BIOSCIENCE (SHANGHAI) LIMITED, priority 2020, published 2024).
# Where a name gives a salt, the structure may show the parent alone.
# Key:
# CT26 cells = test: Immunological memory function in CT26 transplantation tumor model, syngeneic or nude mouse (re-inoculation); assay type: in vivo, BALB/c immune-competent or nude mice; conditions: for Average tumor volume after re-inoculation of CT26 cells: immunocompetent BALB/c mice
# Procedure: BALB/c immune-competent or nude mice of 6-8 weeks (purchased from Shanghai Ling Chang Biotech Co., Ltd.) were inoculated with 5×10^5 CT26 cells (supplied by Taicang Zexin Biotechnology Co., Ltd., ATCC #CRL-2638) subcutaneously on the right back dorsal, respectively, and the inoculation volume was 0.1 mL. When tumors grew to an average volume of 100 mm^3, they were randomized according to tumor size and mouse body weight and dosed. The day of the first dose was Day 0. Two doses were administered on Day 0 and Day 4, with 50 μg of compound/mouse (i.e., 2.5 mg/kg) injected intratumorally, with the same volume of PBS (Hyclone, Cat #SH30258.01) as a control. Mice in the nude or BALB/c mice groups were sacrificed on Day 9 or Day 13 post-dosing, respectively. On Day 21 post-dosing, mice were inoculated again subcutaneously on the left back dorsal with 5×10^5 CT26 cells in a volume of 0.1 mL. Blank BALB/c or nude mice without any treatment were also inoculated as controls. During the experiment, tumor volumes and the body weights were measured 3 times per week, and the tumor volume was calculated as V=D×d×d/2 (Ibid).
# [1] = Hepatocyte metabolic stability assay; assay type: in vitro ADME; conditions: 5 species of hepatocytes (mouse, rat, dog, monkey, human); FIG. 4A
# From the text: The compounds of the invention were similarly tested for hepatocyte metabolic stability in 5 species (mouse, rat, dog, monkey, human) according to standard methods of in vitro metabolic stability studies conventional in the art, for example (Kems, Edward H. and Di Li (2008). Drug-like Properties: Concepts, Structure Design and Methods: From ADME to Toxicity Optimization, San Diego: Academic Press; Di, Li et al, Optimization of a High Throughput Microsomal Stability Screening Assay for Profiling Drug Discovery Candidates, J Biomol Screen. 2003, 8(4), 453).
# The hepatocytes used in the experiment: human hepatocytes (SHQY, Lot #HEP190006), dog hepatocytes (IVT, Lot #ZMB); monkey hepatocytes (Xenotech, Lot #2010022), rat hepatocytes (SHQY, Lot #HEP134045), and mouse hepatocytes (BioIVT, Cat. #M005052, Lot. #MEO).
# Cryopreserved hepatocyte tubes were removed from a liquid nitrogen tank and immediately placed ill in a shaking water bath at 37±1° C. for 2 minutes±15 seconds. […] The supernatant was aspirated without touching the cell pellet, and cell viability and number were determined. The hepatocytes were counted and then the cell suspension was diluted in KHB buffer to the appropriate density (viable cell density=2×10^6 cells/mL). […]
structure (smiles),measurement,setting,value
"Nc1nc2c(ncn2[C@@H]2O[C@@H]3CO[P@@](=O)(S)OC4C(F)[C@H](n5cnc6c(N)nc(Cl)nc65)O[C@@H]4CO[P@@](=O)(S)OC2C3O)c(=O)[nH]1 (stereo partly drawn) [Example 10, (2′,3′)-cyclo-(Rp,Rp)-[2′-O-phosphorothioate-diester-guanosine]-[3′-O-phosphorothioate-diester-2-chloro-2′-deoxy-2′-fluoro-beta-adenosine] diammonium salt]",CT26 tumor growth inhibition in immunocompetent and immunodeficient mice (in words),"CT26 cells; 50 μg/mouse intratumorally, Day 0 and Day 4",significantly inhibited CT26 tumor growth in both immunocompetent and immunodeficient mice
same,Tumor status in treated immunocompetent mice,CT26 cells; Day 5 post-dosing,the tumors completely disappeared
same,Average tumor volume after re-inoculation of CT26 cells,"CT26 cells; re-inoculated Day 21, end of experiment Day 33",101 mm^3
same,Average tumor volume after re-inoculation of CT26 cells,"CT26 cells; re-inoculated Day 21, measured Day 30",29 mm^3
same,Immunological memory in immunocompetent mice,CT26 cells; re-inoculated CT26 cells,developed an immunological memory
same,Immunological memory in immunodeficient nude mice,CT26 cells; re-inoculated CT26 cells Day 21,no immunological memory has been generated
same,Hepatocyte metabolic stability (in words),[1],good metabolic stability
